{"source": "paper PMC6934184", "about": "“Selective DNA-PKcs inhibition extends the therapeutic index of localized radiotherapy and chemotherapy” (The Journal of Clinical Investigation, 2019)", "system": "FLT3 ITD", "test": "SelectScreen LanthaScreen", "type": "binding", "conditions": "1 µM", "procedure,_shortened": "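NU5455 was profiled across the SelectScreen Broad panel of kinase activity and binding assays. Z'LYTE reactions such as CSF1R ran at apparent Km ATP, while the Adapta CAMK1 assay used ATP listed as 10. Values are given as percent.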"}
{"smiles": "CN(C(=O)CN1CCOCC1)c1ccc2sc3c(-c4cccc5c(=O)cc(N6CC7CCC(C6)O7)oc45)cccc3c2c1", "note": "[NU5455]", "values": [{"measurement": "% displacement", "result": -11.6, "unit": "%"}]}
